In ChEMBL document CHEMBL1697731, “Cheminformatics analysis of assertions mined from literature that describe drug-induced liver injury in different species” (Chem Res Toxicol, 2010) one finds Hepatotoxicity data, which are given here for 24 compounds.

The subject of data set [1] is Hepatotoxicity. In words: Literature-mined compound from Fourches et al multi-species drug-induced liver injury (DILI) dataset, effect in rodents. The note with it: rodentia.
The subject of data set [2] is Hepatotoxicity. As to the kind of experiment: Literature-mined compound from Fourches et al multi-species drug-induced liver injury (DILI) dataset, effect in humans. Particulars: human.
The test system of data set [3] is Hepatotoxicity. As to the kind of experiment: Literature-mined compound from Fourches et al multi-species drug-induced liver injury (DILI) dataset, effect in non-rodents.

As for `CC(=O)c1ccc(S(=O)(=O)NC(=O)NC2CCCCC2)cc1` [ACETOHEXAMIDE], the Hepatotoxicity entry is on record as “no drug-induced liver injury reported” in the data set with Hepatotoxicity [1], “drug-induced liver injury reported” with Hepatotoxicity [2] and “no drug-induced liver injury reported” in the data set with Hepatotoxicity [3].

With `CC(=O)NO` [ACETOHYDROXAMIC ACID], the Hepatotoxicity result in the data set with Hepatotoxicity [1] is listed as “drug-induced liver injury reported”; in the data set with Hepatotoxicity [2], “no drug-induced liver injury reported”; with Hepatotoxicity [3], “no drug-induced liver injury reported”.

For `CC(=O)Nc1c(I)cc(I)c(C(=O)[O-])c1I.O.[Na+]` [ACETRIZOATE SODIUM], the Hepatotoxicity result with Hepatotoxicity [1] is reported as “drug-induced liver injury reported”; in the data set with Hepatotoxicity [2], “no drug-induced liver injury reported”; with Hepatotoxicity [3], “no drug-induced liver injury reported”.

In the case of `CC(=O)O[C@H](CC(=O)[O-])C[N+](C)(C)C` [ACETYLCARNITINE], the results for the Hepatotoxicity entry with Hepatotoxicity [1], in the data set on Hepatotoxicity [2] and in the data set on Hepatotoxicity [3] were “drug-induced liver injury reported”, “no drug-induced liver injury reported” and “no drug-induced liver injury reported”, respectively.

With `CC(=O)OCC[N+](C)(C)C` [ACETYLCHOLINE], the Hepatotoxicity entry with Hepatotoxicity [1] (Liver) is reported as “drug-induced liver injury reported”; in the data set with Hepatotoxicity [2] (Liver), “no drug-induced liver injury reported”; in the data set with Hepatotoxicity [3] (Liver) it was “drug-induced liver injury reported”.

Consider `CC(=O)N[C@@H](CS)C(=O)O` [ACETYLCYSTEINE], for which the Hepatotoxicity entry is “drug-induced liver injury reported” in the data set with Hepatotoxicity [1], “drug-induced liver injury reported” in the data set on Hepatotoxicity [2] and “no drug-induced liver injury reported” in the data set with Hepatotoxicity [3].

Consider `COc1cc(C)c(/C=C/C(C)=C/C=C/C(C)=C/C(=O)O)c(C)c1C` [ACITRETIN], for which the figures for the Hepatotoxicity result in the data set with Hepatotoxicity [1], with Hepatotoxicity [2] and in the data set with Hepatotoxicity [3] were “drug-induced liver injury reported”, “drug-induced liver injury reported” and “no drug-induced liver injury reported”, respectively.

As to `Nc1nc2c(ncn2COCCO)c(=O)[nH]1` [ACYCLOVIR], the figures for the Hepatotoxicity entry in the data set with Hepatotoxicity [1], in the data set on Hepatotoxicity [2] and in the data set on Hepatotoxicity [3] were “drug-induced liver injury reported”, “drug-induced liver injury reported” and “no drug-induced liver injury reported”, respectively.

`CC(C)(C)C(=O)OCOP(=O)(COCCn1cnc2c(N)ncnc21)OCOC(=O)C(C)(C)C` [ADEFOVIR DIPIVOXIL]: the figures for the Hepatotoxicity result in the data set with Hepatotoxicity [1], with Hepatotoxicity [2] and in the data set with Hepatotoxicity [3] were “drug-induced liver injury reported”, “drug-induced liver injury reported” and “no drug-induced liver injury reported”, respectively.

Turning to `Nc1ncnc2nc[nH]c12` [ADENINE], the Hepatotoxicity entry is recorded as “drug-induced liver injury reported” in the data set with Hepatotoxicity [1], “no drug-induced liver injury reported” with Hepatotoxicity [2] and “no drug-induced liver injury reported” in the data set on Hepatotoxicity [3].

For `Nc1ncnc2c1ncn2[C@@H]1O[C@H](COP(=O)(O)OP(=O)(O)OP(=O)(O)O)[C@@H](O)[C@H]1O` [ADENOSINE TRIPHOSPHATE], the Hepatotoxicity entry is listed as “drug-induced liver injury reported” in the data set on Hepatotoxicity [1], “no drug-induced liver injury reported” in the data set on Hepatotoxicity [2] and “no drug-induced liver injury reported” with Hepatotoxicity [3].

Regarding `Nc1ncnc2c1ncn2[C@@H]1O[C@H](CO)[C@@H](O)[C@H]1O` [ADENOSINE], the Hepatotoxicity result with Hepatotoxicity [1], with Hepatotoxicity [2] and with Hepatotoxicity [3] was “drug-induced liver injury reported” each time.

As to `CC[C@H]1[C@@H]2C[C@H]3[C@@H]4N(C)c5ccccc5[C@]45C[C@@H]([C@@H]2[C@H]5O)N3[C@@H]1O` [AJMALINE], the figures for the Hepatotoxicity entry in the data set with Hepatotoxicity [1], in the data set with Hepatotoxicity [2] and in the data set on Hepatotoxicity [3] were “no drug-induced liver injury reported”, “drug-induced liver injury reported” and “no drug-induced liver injury reported”, respectively.

On to `N[C@@H](CN(O)N=O)C(=O)O` [ALANOSINE], for which the Hepatotoxicity result with Hepatotoxicity [1] is recorded as “drug-induced liver injury reported”; with Hepatotoxicity [2], “no drug-induced liver injury reported”; in the data set on Hepatotoxicity [3] it was “no drug-induced liver injury reported”.

Regarding `CS(=O)(=O)O.C[C@H](N)C(=O)N[C@@H](C)C(=O)N[C@H]1[C@@H]2CN(c3nc4c(cc3F)c(=O)c(C(=O)O)cn4-c3ccc(F)cc3F)C[C@@H]21` [ALATROFLOXACIN MESYLATE], the Hepatotoxicity entry is “no drug-induced liver injury reported” in the data set with Hepatotoxicity [1], “drug-induced liver injury reported” in the data set with Hepatotoxicity [2] and “no drug-induced liver injury reported” with Hepatotoxicity [3].

For `CCCSc1ccc2nc(NC(=O)OC)[nH]c2c1` [ALBENDAZOLE], the Hepatotoxicity entry in the data set on Hepatotoxicity [1] is given as “no drug-induced liver injury reported”; in the data set with Hepatotoxicity [2], “drug-induced liver injury reported”; in the data set on Hepatotoxicity [3], “no drug-induced liver injury reported”.

For `CC(C)(C)NCC(O)c1ccc(O)c(CO)c1` (configuration not stated) [ALBUTEROL], the Hepatotoxicity entry in the data set with Hepatotoxicity [1] (Liver) is recorded as “drug-induced liver injury reported”; in the data set on Hepatotoxicity [2] (Liver), “no drug-induced liver injury reported”; in the data set with Hepatotoxicity [3] (Liver), “no drug-induced liver injury reported”.

As to `CCO` [ALCOHOL], the Hepatotoxicity result in the data set on Hepatotoxicity [1] (Liver), in the data set on Hepatotoxicity [2] (Liver) and in the data set with Hepatotoxicity [3] (Liver) was “drug-induced liver injury reported” in each case.

Regarding `C=C1/C(=C\C=C2/CCC[C@]3(C)[C@@H]([C@H](C)CCCC(C)C)CC[C@@H]23)C[C@@H](O)C[C@@H]1O` [ALFACALCIDOL], the figures for the Hepatotoxicity entry in the data set with Hepatotoxicity [1], in the data set on Hepatotoxicity [2] and with Hepatotoxicity [3] were “no drug-induced liver injury reported”, “drug-induced liver injury reported” and “no drug-induced liver injury reported”, respectively.

Take `COc1cc2nc(N(C)CCCNC(=O)C3CCCO3)nc(N)c2cc1OC` (configuration not stated) [ALFUZOSIN]: the Hepatotoxicity result in the data set with Hepatotoxicity [1] is on record as “no drug-induced liver injury reported”; in the data set on Hepatotoxicity [2] it was “drug-induced liver injury reported”; in the data set on Hepatotoxicity [3] it was “no drug-induced liver injury reported”.

In the case of `CC1=C(/C=C/C(C)=C\C=C\C(C)=C\C(=O)O)C(C)(C)CCC1` [ALITRETINOIN], the Hepatotoxicity entry is “drug-induced liver injury reported” in the data set on Hepatotoxicity [1], “drug-induced liver injury reported” with Hepatotoxicity [2] and “no drug-induced liver injury reported” in the data set on Hepatotoxicity [3].

With `NC(=O)NC1NC(=O)NC1=O` (configuration not stated) [ALLANTOIN], the results for the Hepatotoxicity entry in the data set with Hepatotoxicity [1], with Hepatotoxicity [2] and in the data set with Hepatotoxicity [3] were “drug-induced liver injury reported”, “no drug-induced liver injury reported” and “no drug-induced liver injury reported”, respectively.

Turning to `C=CCC1(CC=C)C(=O)NC(=O)NC1=O` [ALLOBARBITAL], the Hepatotoxicity result in the data set on Hepatotoxicity [1] was “drug-induced liver injury reported”; with Hepatotoxicity [2], “no drug-induced liver injury reported”; with Hepatotoxicity [3], “no drug-induced liver injury reported”.

`Oc1ncnc2[nH]ncc12` [ALLOPURINOL]: the Hepatotoxicity result in the data set on Hepatotoxicity [1] is “drug-induced liver injury reported”; in the data set on Hepatotoxicity [2], “drug-induced liver injury reported”; in the data set with Hepatotoxicity [3] it was “no drug-induced liver injury reported”.
